The values below come from PubChem BioAssay (NCI).

Several values for one entry are separate records, joined by “and”; a condition that tells them apart may be missing. Identical values can stand only once.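 96-well plates; 48 h exposure; 5 concentrations. Endpoints by linear interpolation between flanking doses. Not reached: highest tested concentration assigned. GI50: concentration for 50% inhibition of growth. At the TGI there is no net growth.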

Usually TGI stands for the concentration giving total growth inhibition. The low end stands for greater sensitivity of the cells, the high end for lower sensitivity of the cells. Broadly, the GI50 is the concentration that inhibits growth by half.

Some test systems named below: ACHN renal; HCT-116 colon; HCT-15 colon; KM12 colon; MDA-MB-231 breast; MOLT-4 leukemia; NCI-H23 lung; RXF 393 renal; SF-268 CNS; T-47D breast; TK-10 renal; U251 CNS; UACC-257 melanoma.
Assay in all cases: DTP human tumour cell line panel, 48 h

For the compound `COC(=O)[C@]1(Cc2ccc3ccccc3c2)CCCCCCN1C(=O)c1ccccc1`, the TGI was more than 73.2 µM in the test with ACHN renal; more than 44.1 µM with HCT-116 colon; more than 47.1 µM in the test with HCT-15 colon; more than 49 µM with KM12 colon; more than 53.5 µM in the test with MDA-MB-231 breast; more than 47.7 µM with MOLT-4 leukemia. The TGI is more than 45.9 µM in the test with NCI-H23 lung; more than 47.5 µM in the test on RXF 393 renal; more than 54 µM in the test with SF-268 CNS; more than 54.3 µM in the test with T-47D breast; more than 80.8 µM in the test on TK-10 renal; more than 46.1 µM with U251 CNS. The compound also showed a concentration for total growth inhibition (TGI) in the test with UACC-257 melanoma of 25 µM.
Take `O=C1/C(=C\c2cccc(Oc3ccccc3)c2)SC(c2ccccc2)N1c1cccc(Cl)c1` (stereo not drawn): the TGI in the test with ACHN renal, in the test on HCT-116 colon, in the test with HCT-15 colon, with KM12 colon, in the test with MDA-MB-231 breast and in the test on MOLT-4 leukemia was more than 100 µM each time. For the same compound, the TGI in the test on NCI-H23 lung, in the test on RXF 393 renal, in the test with SF-268 CNS, in the test on T-47D breast, in the test with TK-10 renal and with U251 CNS was more than 100 µM each time. Further, the TGI with UACC-257 melanoma is more than 100 µM.
In the case of `Cc1ccc2c(=O)c(C(=O)NNC(=S)NC3CCCCC3)c[nH]c2n1`, the TGI in the test on ACHN renal, in the test on HCT-116 colon, in the test with HCT-15 colon, in the test on KM12 colon, in the test on MDA-MB-231 breast and in the test on MOLT-4 leukemia was more than 100 µM in each case. Moreover, the TGI in the test on NCI-H23 lung, with RXF 393 renal, with SF-268 CNS, in the test on T-47D breast, in the test on TK-10 renal and in the test with U251 CNS was more than 100 µM in each case. Moreover, the TGI with UACC-257 melanoma was more than 100 µM.
For `C(/C=C/Nc1ccc(-c2ccccc2)cc1)=Nc1ccc(-c2ccccc2)cc1`, the TGI in the test with ACHN renal, with HCT-116 colon, in the test on HCT-15 colon, in the test with KM12 colon, in the test on MDA-MB-231 breast and in the test with MOLT-4 leukemia was more than 100 µM throughout. Also, the TGI in the test on NCI-H23 lung, in the test with RXF 393 renal, in the test on SF-268 CNS, with T-47D breast, in the test with TK-10 renal and in the test on U251 CNS was more than 100 µM in each case. In the test with UACC-257 melanoma, this compound displayed a TGI of more than 100 µM.
Take `COc1ccc(-c2nc(SC)n(C3OC(COC(C)=O)C(OC(C)=O)C(OC(C)=O)C3OC(C)=O)c(=O)c2C#N)cc1` (stereo not drawn): the GI50 with ACHN renal is 35.8 µM and > 100 µM; with NCI-H23 lung it was 35.7 µM and > 100 µM; in the test with RXF 393 renal it was 16.5 µM and > 100 µM; in the test on SF-268 CNS it was 21.8 µM and 76.4 µM. Also, the TGI in the test on ACHN renal, in the test with HCT-116 colon, with HCT-15 colon, in the test on KM12 colon, in the test on MDA-MB-231 breast and with MOLT-4 leukemia was more than 100 µM throughout. The total growth inhibition concentration (TGI) in the test on NCI-H23 lung is more than 100 µM; in the test on RXF 393 renal it was 35.4 µM and > 100 µM; with SF-268 CNS, more than 100 µM; with T-47D breast it was more than 100 µM; in the test with TK-10 renal, more than 100 µM; with U251 CNS, more than 100 µM. Also, the TGI with UACC-257 melanoma was more than 100 µM.
Take `Cc1cc(=O)n2nc(CSc3n[nH]c(=S)s3)sc2n1`: the TGI in the test with ACHN renal, in the test on HCT-116 colon, in the test on HCT-15 colon, in the test on KM12 colon, with MDA-MB-231 breast and in the test with MOLT-4 leukemia was more than 100 µM each time. In addition, the TGI in the test on NCI-H23 lung, in the test on RXF 393 renal, with SF-268 CNS, in the test on T-47D breast, with TK-10 renal and with U251 CNS was more than 100 µM in each case. In the test with UACC-257 melanoma, the TGI was more than 100 µM.
As for `Nc1nc(Cc2ccccc2)nc(Cc2ccccc2)c1-c1ccccc1`, the TGI in the test with ACHN renal is more than 100 µM; in the test on HCT-116 colon, 46 µM; with HCT-15 colon, 84.3 µM; with KM12 colon, 75 µM; with MDA-MB-231 breast, 49.1 µM; in the test with MOLT-4 leukemia it was 59.7 µM. For the same compound, the TGI in the test on NCI-H23 lung was 45.2 µM; in the test with RXF 393 renal, more than 100 µM; in the test on SF-268 CNS it was 85.9 µM; in the test with T-47D breast it was more than 100 µM; in the test with TK-10 renal it was more than 100 µM; in the test on U251 CNS, 37.1 µM. The compound also had a concentration for total growth inhibition (TGI) with UACC-257 melanoma of more than 100 µM.
As to `COc1ccc(S(=O)(=O)Nc2ccc(-c3csc(N4C(=O)/C(=C/c5cccs5)N=C4c4ccccc4)n3)cc2)cc1Cl`, the TGI was more than 100 µM in the test on ACHN renal; more than 100 µM in the test on HCT-116 colon; 70.6 µM with HCT-15 colon; more than 100 µM with KM12 colon; more than 100 µM in the test with MDA-MB-231 breast; more than 100 µM in the test on MOLT-4 leukemia. For the same compound, the TGI was 59.6 µM with NCI-H23 lung; more than 100 µM in the test with RXF 393 renal; more than 100 µM with SF-268 CNS; 85 µM with T-47D breast; more than 100 µM in the test on TK-10 renal; more than 100 µM in the test with U251 CNS. This compound returned a TGI in the test with UACC-257 melanoma of more than 100 µM.
For the compound `COc1ccc(/C=C2/SC(c3c(O)ccc4ccccc34)N(NC(=O)CCCCCCCCC(=O)NN3C(=O)/C(=C\c4ccc(OC)c(OC)c4)SC3c3c(O)ccc4ccccc34)C2=O)cc1OC` (stereo not drawn), the TGI in the test with ACHN renal is more than 54.1 µM; in the test with HCT-116 colon it was more than 100 µM; in the test with HCT-15 colon, more than 100 µM; with KM12 colon it was more than 100 µM; in the test on MDA-MB-231 breast, more than 91.7 µM; with MOLT-4 leukemia, 2.9 µM. In addition, the TGI in the test with NCI-H23 lung is more than 75 µM; in the test on RXF 393 renal, more than 79.7 µM; in the test with SF-268 CNS, more than 100 µM; in the test on T-47D breast, 48.9 µM; in the test on TK-10 renal, more than 100 µM; with U251 CNS, 96.8 µM. Also, the TGI in the test with UACC-257 melanoma is more than 28.5 µM.
On to `FC(F)(F)C1(c2ccccc2)SCc2nc3ccccc3n21` (stereo not drawn), for which the TGI with ACHN renal, with HCT-116 colon, in the test with HCT-15 colon, with KM12 colon, with MDA-MB-231 breast and with MOLT-4 leukemia was more than 100 µM in each case. Further, the TGI with NCI-H23 lung, with RXF 393 renal, with SF-268 CNS, in the test on T-47D breast, with TK-10 renal and in the test with U251 CNS was more than 100 µM throughout. This compound gave a TGI with UACC-257 melanoma of more than 100 µM.
Turning to `O=C(Nc1nccs1)NS(=O)(=O)n1cnc2ccccc21`, the TGI with ACHN renal, in the test with HCT-116 colon, in the test with HCT-15 colon, with KM12 colon, in the test with MDA-MB-231 breast and in the test with MOLT-4 leukemia was more than 100 µM each time. In addition, the concentration for total growth inhibition (TGI) in the test on NCI-H23 lung, with RXF 393 renal, in the test on SF-268 CNS, with T-47D breast, with TK-10 renal and in the test with U251 CNS was more than 100 µM throughout. In the test with UACC-257 melanoma, this compound showed a TGI of more than 100 µM.
On to `CCOC1=NC(C(F)(F)F)(C(F)(F)F)N=C(N2CCCCC2)O1`, for which the TGI in the test with ACHN renal, with HCT-116 colon, in the test on HCT-15 colon, in the test with KM12 colon, in the test on MDA-MB-231 breast and in the test with MOLT-4 leukemia was more than 100 µM each time. Further, the TGI in the test with NCI-H23 lung, in the test on RXF 393 renal, with SF-268 CNS, in the test on T-47D breast, with TK-10 renal and in the test on U251 CNS was more than 100 µM each time. For the same compound, the TGI in the test with UACC-257 melanoma was more than 100 µM.
With `CCNC1=C(NC(=O)CCl)C(=O)c2ccccc2C1=O`, the total growth inhibition concentration (TGI) came out at 31.9 µM in the test on ACHN renal; 33.7 µM in the test with HCT-116 colon; 33.6 µM with HCT-15 colon; 32 µM with KM12 colon; 40.9 µM in the test on MDA-MB-231 breast; 55.5 µM with MOLT-4 leukemia. The TGI was 36 µM with NCI-H23 lung; 30.6 µM with RXF 393 renal; 32.8 µM in the test on SF-268 CNS; 44.7 µM in the test with T-47D breast; 31.5 µM in the test with TK-10 renal; 35.9 µM in the test with U251 CNS. Moreover, the TGI in the test on UACC-257 melanoma was more than 10 µM.
